Several values for one entry are separate records, joined by “and”; a condition that tells them apart may be missing. Equal values may be shown once. Numbered stars: 1 amine (or outer) side, 2 acyl side, 3 side chain; on linkers, the order of the positions; unused ones are H or OH. Bridge positions count the residues as written; N and C are the ends. Square brackets hold non-standard residues; d marks the D form. Peptide text beside a SMILES is read from it. Acbc(cis-1,3) = O=C([C@H]1C[C@@H](N[*:1])C1)[*:2]
Columns and labels:
Vero E6 cells = system: Vero E6 cells; set-up: method as in PMID 33786375; details: read-out: CC50 (half-maximal cytotoxic concentration); cited from earlier work
[1] = read-out: EC50 (antiviral activity in cells); cited from earlier work
SARS-CoV-2 M^pro [2] = target: T1, SARS-CoV-2 M^pro (Severe acute respiratory syndrome coronavirus 2, UniProt P0DTD1); experiment: biochemical; type: biochemical
SARS-CoV-2 M^pro [3] = target: T1, SARS-CoV-2 M^pro; experiment: biochemical; type: binding; details: for kon: read-out: ka (kinetic association)
[4] = Serum stability assay in human serum (LC/MS)
[5] = 37 °C, incubation time 1 h, relative to 0 h = 100%, technical replicates, 60 min
[6] = 37 °C, incubation time 2 h, relative to 0 h = 100%, technical replicates, 120 min
[7] = 37 °C, incubation time 4 h, relative to 0 h = 100%, technical replicates, 240 min
[8] = 37 °C, incubation time 8 h, relative to 0 h = 100%, technical replicates, 480 min
[9] = human, Remaining peptide (%), 37 °C, incubation time 1 h, relative to 0 h = 100%, technical replicates
[10] = human, Remaining peptide (%), 37 °C, incubation time 2 h, relative to 0 h = 100%, technical replicates
[11] = human, Remaining peptide (%), 37 °C, incubation time 4 h, relative to 0 h = 100%, technical replicates
[12] = human, Remaining peptide (%), 37 °C, incubation time 8 h, relative to 0 h = 100%, technical replicates
[13] = human, Remaining peptide (%), 37 °C, incubation time 24 h, relative to 0 h = 100%, technical replicates

Row | SMILES | IC50 (SARS-CoV-2 M^pro [2]) [nM] | Kd (SARS-CoV-2 M^pro [3]) [nM] | fold change in binding affinity relative to the original peptide (SARS-CoV-2 M^pro [3]) | kd (kinetic dissociation) (SARS-CoV-2 M^pro [3]) | kon (SARS-CoV-2 M^pro [3]) [M⁻¹ s⁻¹] | Remaining peptide (%) [4, 5] | Remaining peptide (%) [4, 6] | Remaining peptide (%) [4, 7] | Remaining peptide (%) [4, 8] | half-life at 10 μM ([4]; human) [h] | remaining at 1 h, 10 μM [4, 9] [%] | remaining at 2 h, 10 μM [4, 10] [%] | remaining at 4 h, 10 μM [4, 11] [%] | remaining at 8 h, 10 μM [4, 12] [%] | remaining at 24 h, 10 μM [4, 13] [%] | further results
1 | O=c1[nH]cc(-c2cc(-c3cc(Cl)c(F)c(OCc4ccccc4Cl)c3)c(=O)n(-c3cccnc3)c2)c(=O)[nH]1 [compound 23] | – | – | – | – | – | – | – | – | – | – | – | – | – | – | – | CC50 (Vero E6 cells): 1150 nM
2 | Cn1cnc(Cn2c(=O)[nH]/c(=N\c3cc4cn(C)nc4cc3Cl)n(Cc3cc(F)c(F)cc3F)c2=O)n1 [S-217622] | – | – | – | – | – | – | – | – | – | – | – | – | – | – | – | EC50 [1]: 370 nM
3 | CC(C)C[C@@H]1NC(=O)[C@@H](Cc2ccc(O)cc2)NC(=O)CSC[C@H](C(N)=O)NC(=O)[C@H](C)NC(=O)[C@H](C)NC(=O)[C@H](Cc2ccc(O)cc2)NC(=O)[C@H](CCCNC(=N)N)NC(=O)[C@H](Cc2ccc(O)cc2)NC(=O)[C@H](C)NC(=O)[C@H](CO)NC(=O)[C@H](Cc2ccc(O)cc2)NC(=O)[C@H]([C@@H](C)O)NC(=O)[C@H](CO)NC(=O)[C@H](C)NC(=O)[C@H](Cc2ccc(O)cc2)NC(=O)[C@H](Cc2c[nH]cn2)NC1=O [GM3γ^210A] ({CH2CO}-[dY]LHYASTYSAYRYAA[dC]-NH2; thioether N-16) | 120 | 7.5 | eightfold stronger | 2.1 10^-3 s^-1 | 280000 | 35.60% and 33.84% | 15.90% and 15.53% | 6.44% and 7.19% | 2.01% | 0.59 | 33.1 | 17 | 7.23 | 2.04 | 0 | inhibition at 0.309 µM (SARS-CoV-2 M^pro [2]): 77.9%; inhibition at 0.933 µM (SARS-CoV-2 M^pro [2]): 95.6%; inhibition at 2.75 µM (SARS-CoV-2 M^pro [2]): 100%; inhibition at 8.32 µM (SARS-CoV-2 M^pro [2]): 100%; Remaining peptide (%) ([4]; 37 °C, incubation time 0.5 h, relative to 0 h = 100%, technical replicates, 30 min): 47.41% and 46.64%; remaining at 0.5 h, 10 μM ([4]; human, Remaining peptide (%), 37 °C, incubation time 0.5 h, relative to 0 h = 100%, technical replicates): 44.4%
4 | CC(C)C[C@@H]1NC(=O)[C@H](CC(N)=O)NC(=O)[C@H](CC(C)C)NC(=O)[C@H]2C[C@H](C2)NC(=O)[C@H](CCC(N)=O)NC(=O)[C@H](Cc2ccccc2)NC(=O)[C@@H](Cc2ccc(O)cc2)NC(=O)CSC[C@H](C(N)=O)NC(=O)CNC(=O)[C@@H]2CCCN2C(=O)[C@H](CCCNC(=N)N)NC(=O)[C@H](Cc2ccc(O)cc2)NC(=O)CNC1=O [GM4H3Q] ({CH2CO}-[dY]FQ[Acbc(cis-1,3)]LNLGYRPG[dC]-NH2; thioether N-13) | 10 | 0.86 | sixfold stronger | 1.0 10^-3 s^-1 | 1.2e+06 | 98.03% and 94.19% | 84.19% and 81.93% | 100.31% and 98.70% | 92.68% and 86.88% | 82 | 93.4 | 87.5 | 99.9 | 93.9 | 81.3 | fold more potent inhibitory activity relative to GM4 (SARS-CoV-2 M^pro [2]): fivefold more potent; inhibition at 0.186 µM (SARS-CoV-2 M^pro [2]): 96%; inhibition at 0.55 µM (SARS-CoV-2 M^pro [2]): 100%; inhibition at 1.66 µM (SARS-CoV-2 M^pro [2]): 100%; inhibition at 5.01 µM (SARS-CoV-2 M^pro [2]): 100%; Remaining peptide (%) ([4]; 37 °C, incubation time 24 h, relative to 0 h = 100%, technical replicates, 1440 min): 77.71% and 81.24%; Remaining peptide (%) ([4]; 37 °C, incubation time 50 h, relative to 0 h = 100%, technical replicates, 3000 min): 64.07% and 63.70%; Remaining peptide (%) ([4]; 37 °C, incubation time 100 h, relative to 0 h = 100%, technical replicates, 6000 min): 43.40% and 43.85%; remaining at 50 h, 10 μM ([4]; human, Remaining peptide (%), 37 °C, incubation time 50 h, relative to 0 h = 100%, technical replicates): 70.1%; remaining at 100 h, 10 μM ([4]; human, Remaining peptide (%), 37 °C, incubation time 100 h, relative to 0 h = 100%, technical replicates): 44.2%

Reference: paper PMC10322702 (Nature Chemistry, 2023)
